From patent publication US20160113895A1, “Novel Use of Adapalene in Treating Esophageal Cancer and Gastrointestinal Stromal Tumor” (Biodelight Biotech Inc., priority 2013, published 2016) come the findings set out here.

The test system of data set [1] is A549 implanted tumors. The experiment in a line: Subcutaneous A549 xenograft model, groups 2a-2c, o.p. To be noted: for Tumor inhibition rate (%): A549, o.p. once daily, NSL-8 70 mpk, Tarceva 20 mpk. How it is done: The antitumor efficacy of the drug lead nsl-8 searched was studied using the subcutaneous xenografted A549 and HCC827 lung cancer tumor models in vivo. […] Mice were maintained in individual ventilated cages (IVC, max. 4 mice/cage) at constant temperature and humidity. Animal weights were determined three times (Monday, Wednesday and Friday) for groups 1a and 1b or two times (Monday and Thursday) for groups 2a-2c and 3a-3c animals. Animal behaviour was monitored daily.
On day 0, either 2×10^6 A549 or 2×10^6 HCC827 tumor cells in 100 μL PBS were implanted into the subcutaneous space of the left flank of all corresponding BALB/c nude and SCID mice, respectively. In the following, tumor sizes were determined by caliper measurement. Tumor sizes were calculated according to the formula W^2×Lg/2 (Lg=length and W=the perpendicular width of the tumor, L>W). On day 48 or 30, after mean tumor volumes had reached approx. 100 mm^3, the corresponding tumor-bearing animals were randomized into 2 groups of 8 (A549 model: groups 1a and 1b) or 10 animals (A549 model: groups 2a and 2b) according to tumor sizes. On day 24 or 28, after mean tumor volumes had reached approx. 100 mm^3, the corresponding tumor-bearing animals were randomized into 2 groups of 10 animals (HCC827 model: groups 3a and 3b) according to tumor sizes. […] The percentage of tumor growth inhibition (TGI) was calculated using the following formula: […]
where T and C represent the mean tumor volume of the treatment and the control group, respectively.
The solution was aliquoted into several 15 ml sterile centrifuge tubes in 650 μl quantity per tube and then stored frozen at −80° C. until use. […] Animals of group 1b received 40 mg/kg nsl-8 dosage solution once daily through i.p. route on days 48-52 and 62-66, while those of groups 2b and 3b received 70 mg/kg nsl-8 dosage solution once daily through o.p. route on days 1-14 (group 2b) and days 1-14 (group 3b), respectively (Table 4).
Groups 1a and 1b (A549 model) were terminated on day 69, while groups 2a-2c (A549 model) and 3a-3c (HCC827 model) were terminated on day 15. At necropsy, animals were killed by cervical dislocation. Primary tumor weights and volumes were determined. The tumor volume and weight were analysed using descriptive data analysis (Mean, SEM, Median). Statistical analysis of efficacy data was performed using the unpaired t-test. All the data analyses were performed using GraphPad Prism 5 from GraphPad Software, Inc., San Diego, USA.
The serum level of blood urea nitrogen (BUN) was measured for assessing the renal function while those of alanine aminotransferase (ALT) and aspartate aminotransferase (AST) were measured using Ektachem DT system (Johnson & Johnson Clinical Diagnostics) for assessing the liver function. The EDTA treated anticoagulated blood samples were also collected for making a complete peripheral blood count by using a Hematology Analyzer (Sysmex, XT-1800i).
For this study, 0.161 ml nsl-8 stock solution made in DMSO was mixed with 1.339 ml 0.9% w/v saline so that the volume of a final dosage solution prepared to feed an animal was 1.5 ml and containing 10% DMSO. Therefore, both administration routes and vehicles used in treating groups 2a-2b and 3a-3b animals were quite different from that used in treating groups 1a-1b animals.

Data set [2] concerns A549. Kind of data set: 2D cell proliferation assay (Alamar Blue), A549. It counts as cell-based, human. To be noted: A549, 72 h. From the text:
(§1) Nsl-8 was subjected to 2D cell proliferation assays using four NSCLC cell lines (A549 (human adenocarcinomic alveolar basal epithelial cells with k-ras gene mutation), H1299 (human non-small cell lung carcinoma cell line with p53 mutation), H460 (human non-small cell lung carcinoma cell line with k-ras gene mutation), and HCC827 (human NSCLC cells with EGFR mutation of deletion from E746 to A750)) and the results were presented in Table 2. There were eight concentrations used for each drug for determining its IC50. […]. Actinomycin D was a chemotherapeutic drug simply used as a quality control for all the experiments.
(§2) In the 2D cell proliferation assay, cells were cultured in DMEM containing 10% FCS and Penicillin/Streptomycin. For the assays, cells were seeded in 150 μL medium on a 96-well cell culture plate and incubated at 37° C. overnight before the compounds were added. Compounds were prepared as predilution which was 16 fold concentrated to the final assay concentration. A day after cell seeding, 10 μL of prediluted compounds was added to the cells (1:16 dilution). Treatment of cells with 0.1% DMSO or 1% DMSO (for the two top concentrations of nsl-8) and 1.0E-05 M Staurosporine was served as high control (100% viability) and low control (0% viability), respectively. Measurement of the impact of compounds on cell viability was performed as follows: 5000 cells (A549 and HCC827) or 2500 cells (H1299 and H460) were seeded in the inner wells of 96-well-plates in 150 μL complete medium. Next day, compounds were added to the medium to reach the final concentration and then incubated at 37° C. in 5% or 10% CO2 depending on the medium for 72 h. Subsequently 10 μL Alamar Blue reagent was added and fluorescence at 590 nm was measured after 5 h incubation at 37° C. in 5% CO2 using a fluorometer.
(§3) Raw data were converted into percent cell viability relative to high control (solvent 0.1% DMSO or 1% DMSO for the two top concentrations of drug nsl-8) and low control (1.0E-05 M Staurosporine), which were set to 100% and 0%, respectively.

Data set [3] concerns H1299. Kind of data set: 2D cell proliferation assay (Alamar Blue), H1299. The format is cell-based, human.
Text: as §1, §2, §3

For data set [4], the system named is H460. Kind of data set: 2D cell proliferation assay (Alamar Blue), H460. The format is cell-based, human.
Text: as §1, §2, §3
(The colour change of resazurin is a common sign of viable cells or microbes.)

The test system of data set [5] is H460. Kind of data set: 3D cell proliferation assay (soft agar), H460. To be noted: 3D soft agar. The format is cell-based, human. Here is the method:
(§4) Drug nsl-8 was further subjected to a 3D cell proliferation assay for assessing its potential in inhibiting the growth of NSCLC tumors. The same four NSCLC cell lines used in 2D proliferation assays were grown in soft agar and the drug was added after the agar has solidified. The drug added cells were then incubated several days until colonies have formed in the solvent control. Subsequently, Alamar Blue which was a cell viability reagent was added and the corresponding fluorescence released was measured as an indirect quantification of colony growth in soft agar.
(§5) For each cell line, some 96 well culture plates were prepared. 100 μL of the soft agar bottom layer (0.6% final concentration in complete medium) was poured and left to solidify. 50 μL of the soft agar top layer (0.4% final concentration) containing the corresponding cells and cell number were then added on top, solidified and such 96 well plates were incubated overnight at 37° C. in 10% CO2. Next day, drugs were added at indicated final concentrations into the inner wells of the plate. Subsequently, the assays were incubated in cell culture incubators for the indicated period of time. Finally, the assays were developed using Alamar Blue and upon 3-5 h of incubation at 37 ° C. fluorescence intensity was determined (excitation: 560 nm, emission: 590 nm). […]

In data set [6] the test system is H1299. Kind of data set: 3D cell proliferation assay (soft agar), H1299. To be noted: 3D soft agar. It counts as cell-based, human. How it is done: as §4, §5
Data set [7] has as its system HCC827. Kind of data set: 2D cell proliferation assay (Alamar Blue), HCC827. The format is cell-based, human. To be noted: HCC827, 72 h. How it is done:
There were eight concentrations used for each drug for determining its IC50. […] Actinomycin D was a chemotherapeutic drug simply used as a quality control for all the experiments.
as §2, with “Compounds were prepared as predilution which was 16 fold concentrated to the final assay concentration.” left out, “h.” for “h. Subsequently 10 μL Alamar Blue reagent was added and fluorescence at 590 nm was measured after 5 h incubation at 37° C. in 5% CO2 using a fluorometer.”
as §3

Data set [8] deals with A549. Kind of data set: 3D cell proliferation assay (soft agar), A549. The format is cell-based, human. As to conditions: 3D soft agar. Here is the method:
as §4, §5

In data set [9] the test system is HCC827. The experiment in a line: 3D cell proliferation assay (soft agar), HCC827. The format is cell-based, human. As to conditions: 3D soft agar. How it is done: as §4, §5

Structures are written as SMILES. *1 amine or outer side, *2 acyl side, *3 side chain or, on linkers, in order; H or OH if unused. Where a SMILES comes first, the peptide text is derived from it. Bridges are numbered along the chain shown (N, C = ends). Roman numbers before positions name the chains, in order. [ ]: non-standard residue; d: D form. Actinocin(9to1) = Cc1c2oc3c(C)ccc(C(=O)[*:1])c3nc-2c(C(=O)[*:2])c(N)c1=O; NMeV = CN[C@H](C(=O)O)C(C)C; Sar = CNCC(=O)O

On to `C#Cc1cccc(Nc2ncnc3cc(OCCOC)c(OCCOC)cc23)c1` [Erlotinib], for which, in data set [1] (A549 model, peripheral blood at end-point, nsl-8 70 mg/kg, Tarceva 20 mg/kg o.p.), the “cell counts of white blood cell, red blood cell, or platelet versus vehicle” value is reported as “no significant difference”. Further, the “serum levels of BUN, ALT, and AST among treatment groups” value in [1] (A549 model, upon completion of the experiments) is given as “no significant difference”. Besides, the “Tumor inhibition rate (%)” value is recorded as 0% in [1] (Day 0); −16.7% in data set [1] (Day 3); −19.0% in [1] (Day 7); −22.0% in data set [1] (Day 10); −29.6% in data set [1] (Day 14). The “inhibition in growth of A549 implanted tumors (in words)” value in data set [1] (group 2c, 20 mg/kg o.p. daily) is reported as “no inhibition”. Moreover, the IC50 is above 10000 nM in data set [2] (Homo sapiens); above 10000 nM in data set [3] (Homo sapiens, NCI-H1299, 72 h); above 10000 nM in [4] (Homo sapiens, NCI-H460, 72 h).
Consider `Cc1c2oc3c(C)ccc(C(=O)N[C@@H]4C(=O)N[C@H](C(C)C)C(=O)N5CCC[C@H]5C(=O)N(C)CC(=O)N(C)[C@@H](C(C)C)C(=O)O[C@@H]4C)c3nc-2c(C(=O)N[C@@H]2C(=O)N[C@H](C(C)C)C(=O)N3CCC[C@H]3C(=O)N(C)CC(=O)N(C)[C@@H](C(C)C)C(=O)O[C@@H]2C)c(N)c1=O` [Actinomycin D] (I: T[dV]P[Sar][NMeV] / II: T[dV]P[Sar][NMeV]; ester I:1-I:C, II:1-II:C; linker I:N-II:N via Actinocin(9to1)), for which the half-maximal inhibitory concentration (IC50) in data set [5] is 0.67 nM; in data set [6], 0.82 nM; in data set [7], 12 nM; in data set [2] (2D, read-out: IC50), 0.92 nM; in data set [3] (2D, H1299, 72 h, read-out: IC50) it was 0.31 nM; in data set [4] (2D, H460, 72 h, read-out: IC50), 0.42 nM. Further, the figures for the IC50 in data set [8] and in [9] were 0.84 nM and 0.24 nM, respectively.

The term IC50 denotes the point on the concentration scale where inhibition reaches its midpoint.
